Measurements taken from ChEMBL document CHEMBL1131593, “Correlation of human jejunal permeability (in vivo) of drugs with experimentally and theoretically derived parameters. A multivariate data analysis approach” (J Med Chem, 1998).
“And” between values parts separate entries of the source, which are not always exact repeats. Equal values may be shown once.

Tests used:
physchem [1] = settings: octanol/water
[2] = Distribution coefficient in octanol/water at pH 6.5; format: physicochemical; settings: read-out: Log D6.5
[3] = Distribution coefficient in octanol/water at pH 7.4; format: physicochemical; settings: read-out: Log D7.4
[4] = Partition coefficient value and its ionic species.; format: ADME; settings: octanol/water
[5] = octanol/water
[6] = Distribution coefficient in octanol/water at pH 5.5; format: physicochemical; settings: read-out: Log D5.5
physchem [7] = settings: octanol/water, pH 7.4
[8] = octanol/water; remark: listed apart in the source
physchem [9] = settings: octanol/water, pH 6.5
physchem [10] = assay: physchem
physchem [11] = settings: octanol/water, pH 5.5
[12] = pKa value of the compound. (extrapolated values); format: physicochemical
physchem [13] = settings: octanol/water; remark: listed apart in the source
physchem [14] = assay: physchem; remark: listed apart in the source

logP (physchem [1]) | logD [2] | logD [3] | Log Pion [4] | GOF [5] | logD [6] | SMILES | further results
2.07 | -0.5 | 0 | -0.63 | 0.9 | -0.6 | COCCc1ccc(OC[C@@H](O)CNC(C)C)cc1 [(S)-METOPROLOL] | 
 |  |  |  | 3.1 |  | CC1(C)S[C@@H]2[C@H](NC(=O)[C@H](N)c3ccc(O)cc3)C(=O)N2[C@H]1C(=O)O [AMOXICILLIN] | logD (physchem [7]): -1.6; logP [8]: -1.71; logD (physchem [9]): -1.7; pKa (physchem [10]): 9.61; logD (physchem [11]): -1.7
 |  |  |  | 1.6 |  | CC(C)NC[C@H](O)COc1ccc(CC(N)=O)cc1 [ATENOLOL] | 
< -2 | < -2 | < -2 |  | 0.5 | < -2 | CN1CC(=O)NC1=N [CREATININE] | pKa [12]: 4.85
3.37 |  |  |  | 1.1 |  | C[C@H](C(=O)O)c1cccc(C(=O)c2ccccc2)c1 [DEXKETOPROFEN] | logD (physchem [7]): 0.1; logD (physchem [9]): 0.8; logD (physchem [11]): 1.8
-0.13 | -1 | -1 | -1.07 and -0.99 | 1.6 | -1 | C[C@H](N[C@@H](CCc1ccccc1)C(=O)O)C(=O)N1CCC[C@H]1C(=O)O [ENALAPRILAT ANHYDROUS] | pKa [12]: 7.84
 |  |  |  | 1.7 |  | NS(=O)(=O)c1cc(C(=O)O)c(NCc2ccco2)cc1Cl [FUROSEMIDE] | 
-0.17 |  |  |  | 1.6 |  | NS(=O)(=O)c1cc2c(cc1Cl)NCNS2(=O)=O [HYDROCHLOROTHIAZIDE] | 
-1.55 | -1.6 | -1.6 | -2.07 | 2.6 | -1.6 | CC(C)C[C@H](N)C(=O)O [LEUCINE] | pKa [12]: 9.61
< -2 | < -2 | < -2 | < -2 | 1.4 | < -2 | N[C@@H](Cc1ccc(O)c(O)c1)C(=O)O [LEVODOPA] | pKa (physchem [14]): 12.7
< -2 | < -2 | < -2 | < -2 | 1.3 | < -2 | C[C@](N)(Cc1ccc(O)c(O)c1)C(=O)O [METHYLDOPA] | pKa (physchem [14]): 12.7

SMILES | logP (physchem [1]) | logD [2] | logD [3] | Log Pion [4] | GOF [5] | logD [6] | further results
Cc1cc(=O)n(-c2ccccc2)n1C [ANTIPYRINE] |  |  |  |  | 1.2 |  | pKa (physchem [10]): 1.44
CC(C)n1c(/C=C/[C@@H](O)C[C@@H](O)CC(=O)O)c(-c2ccc(F)cc2)c2ccccc21 [FLUVASTATIN SODIUM] | 4.17 |  |  |  | 1.2 |  | logD (physchem [7]): 1.4; logD (physchem [9]): 2; pKa (physchem [10]): 4.31; logD (physchem [11]): 3; logPion (physchem [13]): 1.12
CC(C)NC[C@H](O)COc1cccc2ccccc12.Cl [PROPRANOLOL HYDROCHLORIDE] |  |  |  |  | 0.9 |  | 
CC(C)(C)NC[C@H](O)c1cc(O)cc(O)c1 [TERBUTALINE] | -0.09 | -1.3 | -1.1 |  | 3.3 | -1.3 | pKa (physchem [14]): 11.1
